This passage reports metabolic stability results from paper PMC6270099, “Synthesis, Biological Evaluation, and Pharmacokinetic Study of Novel Liguzinediol Prodrugs” (Molecules, 2013).

The nature of data set [1]: Metabolic stability and formation of parent compound in rat liver microsomes. The note with it: NADPH, 37 °C, up to 3 h. Format: in vitro ADME. The protocol: (§1) Analysis was performed by using a Waters Alliance HPLC system (2695 pump, and 2489 PDA detector) with the following chromatographic parameters: wavelength, 278 nm; injection volume, 20 μL; run time, 20 min. The chromatographic separation was performed on an Phecda C18 (4.6 mm × 250 mm, 5 μm) column with a gradient elution of methanol and deionized water. Flow rate was 1.0 mL/min at 30 °C.
Rat liver microsomes were prepared in house by a previously published method and used immediately in the experiments. Protein concentrations were determined by a Lowry protein assay.
Rat liver microsomes (2.0 mg/mL protein concentration), NADPH (1.0 mM solution, Sigma, Shanghai, China), Tris-HCl buffer (50 mM, pH 7.4, Sigma, Shanghai, China), test compound in aqueous solution (30 mM, 20 μL).
Tris-HCl buffer (780 μL), 1.0 mM NADPH solution (100 μL), and 100 μL of rat liver microsomes were mixed and vortexed at 37 °C for 5 min. To this mixture, 30 mM drug in aqueous solution (20 μL) was injected and vortexed well. Sample (100 μL) was immediately taken out (0 min) and transferred to the centrifuge tube containing ice cold dissolvent (ethanol-ethyl acetate = 1:4 v/v, 1 mL). […] The percentage of prodrug remaining was calculated according to the following equation: % remaining = peak area at respective time (min)/peak area at 0 min × 100% (2)
(Liver microsomes are a subcellular fraction often used to study metabolism.)

Data set [2] can be described thus: In vitro physiological stability and formation of parent compound in rat plasma. Format: in vitro ADME. The note with it: 37 °C, up to 3 h. The protocol: as §1
Rat plasma was harvested from in-house rats. Fresh blood was collected from the male rat using a retro-orbital bleeding method in a tube containing heparin (100 IU/mL blood). After the collection of blood, plasma was separated from the blood by centrifugation at 5,000 rpm for 10 min. The supernatant plasma was separated and utilized for the further experiment.
The test compound in aqueous solution 30 mM (20 μL) was dissolved in rat plasma (980 μL). Immediately after addition (0 min), aliquots (100 μL) were removed and added to ice cold dissolvent (ethanol-ethyl acetate = 1:4 v/v, 1 mL) and mixed well by vortexing for 2 min. The mixture was centrifuged at 12,000 rpm for 10 min, and the supernatant was diluted with methanol and analyzed by HPLC. After 0 min, the remaining sample was incubated at 37 °C for 1, 2, and 3 h. […]

Consider `Cc1nc(CO)c(C)nc1CO` [1a, Liguzinediol], for which the metabolic stability result in data set [1] and in data set [2] was “fairly stable” in each case.
